In publication PMC7025647, “Identifying the Naphthalene-Based Compound 3,5-Dihydroxy 2-Napthoic Acid as a Novel Lead Compound for Designing Lactate Dehydrogenase-Specific Antibabesial Drug” (Frontiers in Pharmacology, 2020):
“And” between values parts separate entries of the source, which are not always exact repeats. Equal values may be shown once. Read-outs that look alike come from different tables or passages of the source.

What was measured:
human LDH-B = tested on: human LDH-B; set-up: method as in Deck et al., 1998; Rellinger et al., 2017; conditions: even at high concentrations; ref Deck et al., 1998; Rellinger et al., 2017; cited from earlier work
[1] = tested on: glyceraldehyde-3-phosphate dehydrogenase; set-up: method as in Deck et al., 1998; Rellinger et al., 2017; conditions: even at high concentrations; ref Deck et al., 1998; Rellinger et al., 2017; cited from earlier work
BmLDH = target: BmLDH; set-up: method as in Yu et al., 2019; conditions: ref Yu et al., 2019; read-out: K i against BmLDH; cited from earlier work
LDH-B4 = conditions: mammalian LDHs, competitive with NADH binding; read-out: K i for LDH-B4; cited from earlier work
B. microti = tested on: B. microti; set-up: method as in Yu et al., 2019; conditions: ref Yu et al., 2019; read-out: IC50 against B. microti in vitro; cited from earlier work
Plasmodium falciparum = tested on: Plasmodium falciparum; set-up: method as in Vivas et al., 2005; conditions: ref Vivas et al., 2005; read-out: IC50 against growth of P. falciparum in vitro; cited from earlier work
LDH-A4 = conditions: mammalian LDHs, competitive with NADH binding; read-out: K i for LDH-A4; cited from earlier work
[2] = target: recombinant BmLDH (rBmLDH) (Babesia microti, UniProt I7J7V6); assay: biochemical; type: biochemical; conditions: for selectivity over human LDH: rBmLDH vs human LDH
Protocol: The enzyme activity of rBmLDH was analyzed using Lactate Dehydrogenase Activity Assay Kit (Sigma-Aldrich, Shanghai, China) according to the manufacturer’s instruction. Briefly, the enzymatic activity of BmLDH was detected by catalyzing the conversion of lactate to pyruvate, with concomitant reduction of NAD^+ to NADH. The coupled reaction was followed by measuring absorbance at 450 nm and at 37°C. Three naphthalene-based compounds [2,6-naphthalenedicarboxylic acid (NDCA), 1,6-dibromo-2-hydroxynapthalene 3-carboxylic acid (DBHCA), and 3,5-dihydroxy 2-napthoic acid (DHNA)] were purchased from Sigma-Aldrich (Shanghai, China) with 99% purity for NDCA and 97% purity for DBHCA and DHNA. In the inhibitory analysis, three naphthalene-based compounds were prepared as 100 mM stock solution in 100% dimethylsulfoxide (DMSO) ( Table 2 ).
The half-maximal inhibitory concentration (IC50) values were determined in the presence of various concentrations of the three naphthalene-based compounds. […] The absorbance Tinitia and Tfinal (5 min) was measured at 450 nm. XY graphs were drawn by linear regression and error bars represent means ± SD of three independent experiments.

[3] = tested on: Plasmodium falciparum lactate dehydrogenase (PfLDH); conditions: 2005, cited from earlier work; for IC50: ref Conners et al.
LDH-C4 = conditions: mammalian LDHs, competitive with NADH binding; read-out: K i for LDH-C4; cited from earlier work
BbLDH = conditions: read-out: K i against BbLDH; ref Bork et al., 2004; cited from earlier work
Babesia bovis = tested on: Babesia bovis; set-up: method as in Bork et al., 2004; conditions: ref Bork et al., 2004; read-out: IC50 in vitro against B. bovis; cited from earlier work
[4] = tested on: B. microti ATCC PRA-99 strain; assay: Growth inhibition of B. microti in vitro; type: cell-based, Babesia microti; conditions: for IC50: Babesia microti
Protocol: (§1) Three BALB/c mice were intraperitoneally injected with 1 x 10^7 parasites (100 μl fresh blood), and their blood was collected from the tail when parasitemia reached ~60% at day 7 post-infection. The growth inhibition assay of B. microti in vitro was performed by incubating freshly isolated infected mouse red blood cells (RBCs) with varying concentrations of the drugs. Briefly, […] infected mouse RBCs was diluted with 5 μl non-infected mouse RBCs and 10 μl non-infected human RBCs to achieve ~3% parasitemia in a total of 40 μl and suspended in 110 μl of a growth medium (20% bovine serum and 80% medium HL20) containing the indicated concentrations of drugs (50, 100, and 250 μM). The cultures were maintained at 37°C for 72 h in a gas mixture of 2% O2, 5% CO2, and 93% N2. Two naphthalene-based compounds DBHCA and DHNA were prepared as 100 mM stock solutions in DMSO and further diluted with growth medium. Each concentration of the compounds was tested in triplicate, while three wells received a drug-free culture medium as a control. 10 μM diminazene aceturate (DA) was selected as a positive control. Parasitemia was determined at 72 h post-treatment by enumerating a total of at least 1,000 RBCs in a Giemsa-stained thin smear. Differences in the percent parasitemia were statistically analyzed using one-way ANOVA analysis, and the IC50 values were calculated manually for obtaining more reliable data (Käber method). The hemolysis of DBHCA and DHNA against B. microti-free erythrocytes was monitored by cell counting chamber at 72 h post-treatment. All the experiments were separately repeated three times.

[5] = target: human lactate dehydrogenase (HmLDH); set-up: method as in Conners et al., 2005; conditions: ref Conners et al., 2005; cited from earlier work
Vero cells = assay: Cytotoxicity test by MTT method; type: cell-based, African green monkey; conditions: for SI (selectivity index): between B. microti and Vero cells
Protocol: (§2) Mycoplasma-free Vero cell line (ATCC-CCL-81, immortalized cells) was preserved in liquid nitrogen with the additive of DMSO in the State Key Laboratory of Agricultural Microbiology, Huazhong Agricultural University, China. […] After adding 10 µl MTT (5 mg/ml in medium) into each test well, the plate was further incubated for another 2 h, followed by removing the culture from the incubator and discarding the medium. […] The plate was gently mixed on a gyratory shaker for 10 min and the absorbances were measured at a wavelength of 570 nm using a microplate reader (BioTek, Vermont, USA). The background absorbances of the multi-well plate at 690 nm were subtracted from the 570 nm measurement. […] The CC50 values were calculated using GraphPad Prism 5 (San Diego, CA, USA), and all the cytotoxicity tests were performed three times.

rBmLDH = rBmLDH (Babesia microti, UniProt I7J7V6); assay: Surface plasmon resonance binding kinetics (Biacore T200); conditions: for koff: read-out: k d
Protocol: The binding properties of the rBmLDH against DBHCA and DHNA were measured separately by SPR experiment with a Biacore T200 system (GE Healthcare, Uppsala, Sweden). Briefly, a sensor chip CM5 was put into a Biacore T200 system and washed with the running buffer (PBST+0.5% DMSO, pH7.5). The CM5 chip was activated by injecting the mixture of 0.1 M N-hydroxysuccinimide (NHS) and 0.4 M 1-ethyl-3-(3-dimethylaminopropyl) carbodiimide hydrochloride (EDC) (1:1, v/v) at a flow rate of 10 μl·min^−1 for 20 min. Then, the rBmLDH diluted to 10 μg·ml^−1 with 10 mM sodium acetate buffer (pH 4.0, 4.5, 5.0, and 5.5) was covalently immobilized on the CM5 chip at a flow rate of 10 μl·min^−1 until the immobilization level of BmLDH reached 2,100 resonance units (RU). Ethanolamine solution was injected to block the remaining unreacted esters. Flow cell 1 was activated and blocked as the reference surface, while flow cell 2 served as the experimental surface. The 100 mM stocks of the two small molecule compounds were further diluted with PBST into 500, 250, 125, 62.5, 31.25, and 15.625 μM. The surface of CM5 sensor chip was fully regenerated using 10 mM glycine pH2.5 at a flow rate of 30 μl min^−1 for 30 s. The SPR kinetic experiments were performed three times and the values were presented as the mean ± SD of three independent experiments.
For binding kinetic assays, standard solutions of two naphthalene-based compounds (DBHCA and DHNA) at different concentrations were tested and the data were fitted with a 1:1 binding kinetic model.

[6] = tested on: B. microti-free erythrocytes; assay: Hemolysis of B. microti-free erythrocytes; type: cell-based; conditions: drug levels up to 250 µM, 72 h post-treatment
Protocol: as §1, with “Each concentration of the compounds was tested in triplicate, while three wells received a drug-free culture medium as a control. 10 μM diminazene aceturate (DA) was selected as a positive control.” left out, “All the experiments were separately repeated three times.” left out

[7] = Cytotoxicity test by MTT method; type: cell-based, African green monkey; conditions: African green monkey, Vero cells (ATCC-CCL-81), MTT, 72 h
Protocol: as §2

[8] = rBmLDH 100 ng, lactate to pyruvate, absorbance 450 nm, 37°C, read-out: BmLDH IC50
[9] = SPR, 1:1 binding model, rBmLDH immobilized on CM5
[10] = 72 h post-treatment, Giemsa smear parasitemia, read-out: IC50 against growth of B. microti in vitro
[11] = asexual blood stage, 72 h, read-out: PRA-99 IC50

Chain of rBmLDH (I7J7V6 entry or part of it): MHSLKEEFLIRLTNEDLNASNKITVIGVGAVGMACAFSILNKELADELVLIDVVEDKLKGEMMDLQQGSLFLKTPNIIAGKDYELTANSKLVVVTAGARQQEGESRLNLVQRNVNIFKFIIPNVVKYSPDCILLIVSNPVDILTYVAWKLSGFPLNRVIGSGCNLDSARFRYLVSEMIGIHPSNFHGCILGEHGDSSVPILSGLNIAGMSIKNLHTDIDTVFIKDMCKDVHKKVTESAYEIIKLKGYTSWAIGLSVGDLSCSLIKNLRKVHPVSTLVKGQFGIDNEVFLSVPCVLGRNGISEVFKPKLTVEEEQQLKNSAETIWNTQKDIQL
Chain of recombinant BmLDH (rBmLDH) (I7J7V6 entry or part of it): as above

CCCc1c(O)c(O)c(C(=O)O)c2cc(Cc3ccccc3)c(C)cc12 [FX11]
inhibition of human LDH-B (human LDH-B): not
inhibition of glyceraldehyde-3-phosphate dehydrogenase [1]: not

Cc1cc2c(C(C)C)c(O)c(O)c(C=O)c2c(O)c1-c1c(C)cc2c(C(C)C)c(O)c(O)c(C=O)c2c1O [gossypol]
Ki (BmLDH): 0.67 µM
Ki (LDH-B4): 1.4 µM
IC50 (B. microti): 7.07 µM
IC50 (Plasmodium falciparum): 15.3 µM
Ki (LDH-A4): 1.9 µM
inhibition at 0.7 µM ([2]; read-out: inhibition of the catalytic activity of BmLDH): ~100%
Ki ([3]; competitive, ref Vivas et al., read-out: K i against PfLDH): 0.7 µM
Ki (LDH-C4): 4.2 µM
Ki (BbLDH): 0.085 µM
IC50 (Babesia bovis): 50 µM

CC(=O)NCC(=O)O.CC(=O)NCC(=O)O.N=C(N)c1ccc(N=NNc2ccc(C(=N)N)cc2)cc1 [DA, diminazene aceturate, reference compound]
inhibition of growth of the parasite ([4]; positive control at 10 μM, 72 h): ~ 75.54%

O=C(O)c1ccc2cc(C(=O)O)ccc2c1 [NDCA, 2,6-Naphthalenedicarboxylic acid]
inhibitory effect on the BmLDH activity ([2]; even at the high concentration of 500 μM): no inhibitory effect
IC50 [2, 8]: > 500 µM
IC50 [3]: 5100 µM
IC50 [5]: 1400 µM

COc1cccc2c1C(=O)c1c(O)c3c(c(O)c1C2=O)C[C@@](O)(C(=O)CO)C[C@@H]3O[C@H]1C[C@H](N)[C@H](O)[C@H](C)O1 [doxorubicin, reference compound]
inhibition at 3 µM (Vero cells; Chlorocebus sabaeus, Vero, positive control at 3 µM, read-out: inhibition of growth of Vero cells): ~95%

O=C(O)c1cc2cc(Br)ccc2c(Br)c1O [DBHCA, 1,6-Dibromo-2-hydroxynapthalene 3-carboxylic acid]
Kd (rBmLDH): 0.0399 µM
kon (rBmLDH; SPR, 1:1 binding model, rBmLDH immobilized on CM5, read-out: k a): 37700 M⁻¹ s⁻¹
koff (rBmLDH; [9]): 0.0015 s⁻¹
IC50 [4, 10]: 84.8 µM
IC50 [4, 11]: 85 µM
cellular hemolysis [6]: no cellular hemolysis
IC50 ([2]; BmLDH IC50, rBmLDH 100 ng, lactate to pyruvate, absorbance 450 nm, 37°C): 54 µM
IC50 ([2]; IC50 against BmLDH activity, rBmLDH, mean ± SD of three experiments): 53.9 ± 13.3 µM
selectivity over human LDH [2]: ~ 109 fold
IC50 [3]: 310 µM
IC50 [5]: 5900 µM
CC50 at 72 h ([7]; read-out: CC50 Vero): 217 µM
CC50 at 72 h ([7]; read-out: CC50 in Vero cells): 216 ± 18 µM
SI (selectivity index) (Vero cells): 2.6

O=C(O)c1cc2cccc(O)c2cc1O [DHNA, 3,5-Dihydroxy 2-napthoic acid]
k a (rBmLDH; [9]): 20.49 1/Ms and 20.49 ± 4.18 × 10^−1 1/Ms
Kd (rBmLDH; SPR, 1:1 binding model, rBmLDH immobilized on CM5, read-out: K D): 37.7 µM
koff (rBmLDH; [9]): 0.000772 s⁻¹
IC50 [4, 10]: 85.7 µM
IC50 [4, 11]: 86 µM
cellular hemolysis [6]: no cellular hemolysis
inhibition at 60 µM ([2]; at ~60 μM, read-out: rBmLDH activity inhibited): 100%
IC50 [2, 8]: 30 µM
selectivity over PfLDH ([2]; rBmLDH vs PfLDH): ~ 57 fold
selectivity over human LDH [2]: ~ 5,000 fold
IC50 ([2]; rBmLDH, mean ± SD of three experiments, read-out: IC50 against BmLDH activity): 30.2 ± 8.49 µM
IC50 [3]: 1700 µM
CC50 at 72 h ([7]; read-out: CC50 Vero): 1900 µM
SI (selectivity index) (Vero cells): 22.1
